# Experimental data as given in the Kinase Knowledgebase extract (Sharma et al. 2016).
# Molecular target: PIK3CA (human) (UniProt P42336)
# Assay: Assessment of PIK3CA Kinase Activity
# Chain of PIK3CA (human) (P42336 whole entry, looked up): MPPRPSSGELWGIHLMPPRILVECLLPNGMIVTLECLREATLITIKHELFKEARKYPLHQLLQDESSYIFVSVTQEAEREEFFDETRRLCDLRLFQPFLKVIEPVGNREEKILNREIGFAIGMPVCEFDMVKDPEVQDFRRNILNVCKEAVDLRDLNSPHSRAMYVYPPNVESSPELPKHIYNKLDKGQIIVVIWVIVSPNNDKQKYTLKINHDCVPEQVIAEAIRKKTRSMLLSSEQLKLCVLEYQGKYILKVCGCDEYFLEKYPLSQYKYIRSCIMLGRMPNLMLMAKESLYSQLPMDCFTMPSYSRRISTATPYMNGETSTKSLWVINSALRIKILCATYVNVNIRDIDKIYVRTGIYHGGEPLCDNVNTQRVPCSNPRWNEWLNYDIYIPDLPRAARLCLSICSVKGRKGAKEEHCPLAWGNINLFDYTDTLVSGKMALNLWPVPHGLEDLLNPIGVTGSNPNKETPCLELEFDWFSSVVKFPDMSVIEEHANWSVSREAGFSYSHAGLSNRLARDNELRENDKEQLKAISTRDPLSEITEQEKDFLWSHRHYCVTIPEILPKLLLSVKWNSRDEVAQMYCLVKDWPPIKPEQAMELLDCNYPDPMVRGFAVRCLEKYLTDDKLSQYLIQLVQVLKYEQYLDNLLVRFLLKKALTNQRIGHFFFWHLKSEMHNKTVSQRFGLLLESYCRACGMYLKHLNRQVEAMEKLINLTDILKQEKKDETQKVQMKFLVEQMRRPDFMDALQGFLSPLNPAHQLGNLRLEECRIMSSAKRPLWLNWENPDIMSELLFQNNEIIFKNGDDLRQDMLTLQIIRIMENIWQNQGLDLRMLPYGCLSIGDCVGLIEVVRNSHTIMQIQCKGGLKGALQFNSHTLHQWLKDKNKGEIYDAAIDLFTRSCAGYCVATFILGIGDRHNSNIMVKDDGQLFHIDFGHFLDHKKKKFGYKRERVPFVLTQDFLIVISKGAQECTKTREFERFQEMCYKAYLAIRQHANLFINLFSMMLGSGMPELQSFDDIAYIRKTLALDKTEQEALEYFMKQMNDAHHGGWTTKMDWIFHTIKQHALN
row,IC50 [nM],Structure (SMILES)
1,562,CN(C)C1CCN(Cc2cc3nc(-n4ccc5ccccc54)nc(N4CCOCC4)c3s2)CC1
2,1330,CN(C)C1CCN(Cc2cc3nc(-c4c[nH]c5ccc(F)cc45)nc(N4CCOCC4)c3s2)CC1
3,5390,COCc1cc2ccccc2n1-c1nc(N2CCOCC2)c2nc(CN3CCC(C(C)(C)O)CC3)n(C)c2n1
4,5010,Cn1c(CN2CCC(N3CCOCC3)CC2)nc2c(N3CCOCC3)nc(-c3c[nH]c4ccccc34)nc21
5,396,c1ccc2c(-c3nc(N4CCOCC4)c4nc(CN5CC(N6CCOCC6)C5)sc4n3)c[nH]c2c1
6,529,CC(C)(OCCN1CCCC1)c1cc2nc(-c3c[nH]c4ccccc34)nc(N3CCOCC3)c2s1
7,495,CN(C)C1CCN(Cc2cc3nc(-c4c[nH]c5ccccc45)nc(N4CCOCC4)c3s2)CC1
8,814,CN(C)C1CCN(Cc2cc3nc(-n4ccc5cc(O)ccc54)nc(N4CCOCC4)c3s2)CC1
9,707,CN(C)C1CCN(Cc2cc3nc(N4CCc5ccccc54)nc(N4CCOCC4)c3s2)CC1
10,1380,O=C1COC2(CCN(Cc3cc4nc(-c5c[nH]c6ccccc56)nc(N5CCOCC5)c4s3)CC2)CN1
11,809,CC(C)(C(N)=O)N1CCN(Cc2cc3nc(-c4c(C#N)[nH]c5ccccc45)nc(N4CCOCC4)c3s2)CC1
12,720,CN(C)[C@@H]1CCN(Cc2nc3c(N4CCOCC4)nc(-c4c[nH]c5ccccc45)nc3n2C)C[C@@H]1F
13,5300,Cn1c(CN2CCC(C(C)(C)O)CC2)nc2c(N3CCOCC3)nc(-n3c(C#N)cc4ccccc43)nc21
14,1600,Cc1cc2cc(F)ccc2n1-c1nc(N2CCOCC2)c2sc(CN3CCC(N(C)C)CC3)cc2n1
